# Assay results published in patent US10526347B2, “3-(3H-imidazo[4,5-B]pyridin-2-yl)-1H-pyrazolo[3,4-B]pyridine and therapeutic uses thereof” (Samumed, LLC, priority 2014, dated 2020).
# System: Wnt activity (SW480 colon carcinoma cells stably expressing the Sp5-Luc reporter gene)
# Assay: Sp5-Luc reporter gene screening assay for Wnt activity
# Format: cell-based
# Conditions: Homo sapiens
# Source text: The screening assay for Wnt activity is described as follows. Reporter cell lines can be generated by stably transducing cancer cell lines (e.g., colon cancer) or primary cells (e.g., IEC-6 intestinal cells) with a lentiviral construct that includes a Wnt-responsive promoter driving expression of the firefly luciferase gene.
# SW480 colon carcinoma cells were transduced with a lentiviral vector expressing luciferase with a human Sp5 promoter consisting of a sequence of eight TCF/LEF binding sites. SW480 cells stably expressing the Sp5-Luc reporter gene and a hygromycin resistance gene were selected by treatment with 150 μg/ml of hygromycin for 7 days. These stably transduced SW480 cells were expanded in cell culture and used for all further screening activities. For Sp5-Luc reporter gene assays, the cells were plated at 10,000 cells/well in 96-well plates with growth medium containing 10% fetal calf serum and incubated overnight at 37° C. and 5% CO2. Each compound was dissolved in DMSO as a 10 mM stock in standard j-vials and used to prepare compound source plates in dose-response format with 3-fold serial dilutions and a 10 mM top concentration. Compound transfer from serially diluted source plates to assay plates containing the cells was accomplished using a pintool (Multimek 96, Beckman equipped with V&P Scientific FP1S50H pins) based liquid handling protocol. This protocol used a slotted pin to transfer 50 nl of compound from a source plate well to an assay plate well containing 50 μl of cells in growth medium. […] Control wells received 50 nl of DMSO treatment for normalization and calculating IC50 values. The treated cells were incubated at 37° C. and 5% CO2 for an additional forty-two hours. Following incubation, the growth medium was removed and 50 μl of BrightGlo luminescence reagent (Promega) was added to each well of the 96-well assay plates. The plates were placed on an orbital shaker for 5 min and then luminescence was quantified on the Victor3 (Perkin Elmer) plate reader. Readings were normalized to DMSO only treated cells, and normalized activities were utilized for IC50 calculations using the dose-response log (inhibitor) vs. response -variable slope (four parameters) nonlinear regression feature available in GraphPad Prism 5.0 or 6.0.
row,SMILES,IC50 [nM]
1,"CC(C)CC(=O)Nc1cncc(-c2cnc3[nH]nc(-c4nc5c(-c6cc(O)cc(F)c6)ccnc5[nH]4)c3c2)c1 [Compound 1322, N-(5-(3-(7-(3-Fluoro-5-hydroxyphenyl)-3H-imidazo[4,5-b]pyridin-2-yl)-1H-pyrazolo[3,4-b]pyridin-5-yl)pyridin-3-yl)-3-methylbutanamide]",395
2,"COc1cc(F)cc(-c2ccnc3[nH]c(-c4n[nH]c5ncc(-c6cncc(NC(=O)CC(C)C)c6)cc45)nc23)c1 [Compound 1366, N-(5-(3-(7-(3-Fluoro-5-methoxyphenyl)-3H-imidazo[4,5-b]pyridin-2-yl)-1H-pyrazolo[3,4-b]pyridin-5-yl)pyridin-3-yl)-3-methylbutanamide]",125
3,"CC(C)(C)CC(=O)Nc1cncc(-c2cnc3[nH]nc(-c4nc5cccnc5[nH]4)c3c2)c1 [Compound 222, N-(5-(3-(3H-Imidazo[4,5-b]pyridin-2-yl)-1H-pyrazolo[3,4-b]pyridin-5-yl)pyridin-3-yl)-3,3-dimethylbutanamide]",192
4,"CC(C)(C)CC(=O)Nc1cncc(-c2cnc3[nH]nc(-c4nc5c(-c6ccccc6F)ccnc5[nH]4)c3c2)c1 [Compound 57, N-(5-(3-(7-(2-Fluorophenyl)-3H-imidazo[4,5-b]pyridin-2-yl)-1H-pyrazolo[3,4-b]pyridin-5-yl)pyridin-3-yl)-3,3-dimethylbutanamide]",118
5,"Fc1cccc(-c2ccnc3[nH]c(-c4n[nH]c5ncc(-c6cncc(OC7CCCCC7)c6)cc45)nc23)c1 [Compound 915, 5-(5-(Cyclohexyloxy)pyridin-3-yl)-3-(7-(3-fluorophenyl)-3H-imidazo[4,5-b]pyridin-2-yl)-1H-pyrazolo[3,4-b]pyridine]",> 10000
6,"CN(C)c1cncc(-c2cnc3[nH]nc(-c4nc5c(-c6cccs6)ccnc5[nH]4)c3c2)c1 [Compound 291, N,N-Dimethyl-5-(3-(7-(thiophen-2-yl)-3H-imidazo[4,5-b]pyridin-2-yl)-1H-pyrazolo[3,4-b]pyridin-5-yl)pyridin-3-amine]",43.8
7,"Fc1cccc(-c2ccnc3[nH]c(-c4n[nH]c5ncc(-c6cncc(CN7CCC(F)(F)C7)c6)cc45)nc23)c1 [Compound 21, 5-(5-((3,3-Difluoropyrrolidin-1-yl)methyl)pyridin-3-yl)-3-(7-(3-fluorophenyl)-3H-imidazo[4,5-b]pyridin-2-yl)-1H-pyrazolo[3,4-b]pyridine]",35.8
8,"Fc1ccc(-c2ccnc3[nH]c(-c4n[nH]c5ncc(-c6cncnc6)cc45)nc23)cc1 [Compound 44, 3-(7-(4-Fluorophenyl)-3H-imidazo[4,5-b]pyridin-2-yl)-5-(pyrimidin-5-yl)-1H-pyrazolo[3,4-b]pyridine]",377
9,"CN1CCN(c2ccnc3[nH]c(-c4n[nH]c5ncc(-c6cncc(NC(=O)C7CCCC7)c6)cc45)nc23)CC1 [Compound 204, N-(5-(3-(7-(4-Methylpiperazin-1-yl)-3H-imidazo[4,5-b]pyridin-2-yl)-1H-pyrazolo[3,4-b]pyridin-5-yl)pyridin-3-yl)cyclopentanecarboxamide]",312
10,"NC1CN(c2cncc(-c3cnc4[nH]nc(-c5nc6c(-c7cccc(F)c7)ccnc6[nH]5)c4c3)n2)C1 [Compound 914, 1-(6-(3-(7-(3-Fluorophenyl)-3H-imidazo[4,5-b]pyridin-2-yl)-1H-pyrazolo [3,4-b]pyridin-5-yl)pyrazin-2-yl)azetidin-3-amine]",1020
11,"FC1(F)CCN(Cc2cncc(-c3cnc4[nH]nc(-c5nc6c(-c7cccs7)ccnc6[nH]5)c4c3)c2)C1 [Compound 309, 5-(5-((3,3-Difluoropyrrolidin-1-yl)methyl)pyridin-3-yl)-3-(7-(thiophen-2-yl)-3H-imidazo[4,5-b]pyridin-2-yl)-1H-pyrazolo[3,4-b]pyridine]",38
12,"CC(C)CC(=O)Nc1cncc(-c2cnc3[nH]nc(-c4nc5c(-c6cc(F)cc(OCCN(C)C)c6)ccnc5[nH]4)c3c2)c1 [Compound 1234, N-(5-(3-(7-(3-(2-(Dimethylamino)ethoxy)-5-fluorophenyl)-3H-imidazo[4,5-b]pyridin-2-yl)-1H-pyrazolo[3,4-b]pyridin-5-yl)pyridin-3-yl)-3-methylbutanamide]",1130
13,"O=C(CC1CCNCC1)Nc1cncc(-c2cnc3[nH]nc(-c4nc5c(-c6cccc(F)c6)ccnc5[nH]4)c3c2)c1 [Compound 917, N-(5-(3-(7-(3-Fluorophenyl)-3H-imidazo[4,5-b]pyridin-2-yl)-1H-pyrazolo [3,4-b]pyridin-5-yl)pyridin-3-yl)-2-(piperidin-4-yl)acetamide]",> 10000
14,"CN(C)c1cncc(-c2cnc3[nH]nc(-c4nc5c(-c6cccc(F)c6)ccnc5[nH]4)c3c2)c1 [Compound 5, 5-(3-(7-(3-Fluorophenyl)-3H-imidazo[4,5-b]pyridin-2-yl)-1H-pyrazolo [3,4-b]pyridin-5-yl)-N,N-dimethylpyridin-3-amine]",172
15,"CN1CCN(c2ccnc3[nH]c(-c4n[nH]c5ncc(-c6cncnc6)cc45)nc23)CC1 [Compound 209, 3-(7-(4-Methylpiperazin-1-yl)-3H-imidazo[4,5-b]pyridin-2-yl)-5-(pyrimidin-5-yl)-1H-pyrazolo[3,4-b]pyridine]",> 10000
16,"Fc1cccc(-c2ccnc3[nH]c(-c4n[nH]c5ncc(-c6cncc(OCCN7CCCC7)c6)cc45)nc23)c1 [Compound 918, 3-(7-(3-Fluorophenyl)-3H-imidazo[4,5-b]pyridin-2-yl)-5-(5-(2-(pyrrolidin-1-yl)ethoxy)pyridin-3-yl)-1H-pyrazolo[3,4-b]pyridine]",> 10000
17,"Fc1cccc(-c2ccnc3[nH]c(-c4n[nH]c5ncc(-c6cncc(OCc7ccccc7)c6)cc45)nc23)c1 [Compound 922, 5-(5-(Benzyloxy)pyridin-3-yl)-3-(7-(3-fluorophenyl)-3H-imidazo[4,5-b]pyridin-2-yl)-1H-pyrazolo[3,4-b]pyridine]",> 10000
18,"O=C(CC1CCCCC1)Nc1cncc(-c2cnc3[nH]nc(-c4nc5c(-c6cccc(F)c6)ccnc5[nH]4)c3c2)c1 [Compound 923, 2-Cyclohexyl-N-(5-(3-(7-(3-fluorophenyl)-3H-imidazo[4,5-b]pyridin-2-yl)-1H-pyrazolo[3,4-b]pyridin-5-yl)pyridin-3-yl)acetamide]",> 10000
19,"CCCCC(=O)Nc1cncc(-c2cnc3[nH]nc(-c4nc5c(-c6ccoc6)ccnc5[nH]4)c3c2)c1 [Compound 276, N-(5-(3-(7-(Furan-3-yl)-3H-imidazo[4,5-b]pyridin-2-yl)-1H-pyrazolo [3,4-b]pyridin-5-yl)pyridin-3-yl)pentanamide]",8.1
20,"CC(C)CC(=O)Nc1cncc(-c2cnc3[nH]nc(-c4nc5c(-c6cc(F)cc(OCCN7CCCC7)c6)ccnc5[nH]4)c3c2)c1 [Compound 1278, N-(5-(3-(7-(3-Fluoro-5-(2-(pyrrolidin-1-yl)ethoxy)phenyl)-3H-imidazo[4,5-b]pyridin-2-yl)-1H-pyrazolo[3,4-b]pyridin-5-yl)pyridin-3-yl)-3-methylbutanamide]",890
